Data: ChEMBL document CHEMBL1201862, “PubChem BioAssay data set” (2004)
Active and inactive are the calls of the source.

Assays:
HEK293 [1] = assay: NOD1 signaling inhibitors, primary screen, cell-based, luminescence, uHTS (AID 1578); format: functional; conditions: Homo sapiens
HEK293 [2] = assay: cells; format: functional, cell-based; conditions: Homo sapiens
HEK293 [3] = assay: cells; format: functional, cell-based; conditions: Homo sapiens; remark: listed apart in the source
[4] = target: Nucleotide-binding oligomerization domain-containing protein 2 (Homo sapiens, UniProt Q9HC29); assay: NOD2 signaling inhibitors, cell-based, luminescence, uHTS, HEK293 (AID 1566); format: functional
HEK293 [5] = assay: NOD2 signaling inhibitors in MDP-stimulated cells, cell-based, uHTS, luminescence (AID 2001); format: functional; conditions: Homo sapiens
HEK293 [6] = assay: cells; format: functional, cell-based; conditions: Homo sapiens; remark: listed apart in the source
[7] = target: T1, Microphthalmia-associated transcription factor (Homo sapiens, UniProt O75030); assay: TRPM1 promoter luciferase signal decrease, dose response, MITF inhibitor project, cell-based, SK-MEL-5, cherry-picked, set 3 (AID 493073); format: functional
T1 sequence (O75030 whole entry): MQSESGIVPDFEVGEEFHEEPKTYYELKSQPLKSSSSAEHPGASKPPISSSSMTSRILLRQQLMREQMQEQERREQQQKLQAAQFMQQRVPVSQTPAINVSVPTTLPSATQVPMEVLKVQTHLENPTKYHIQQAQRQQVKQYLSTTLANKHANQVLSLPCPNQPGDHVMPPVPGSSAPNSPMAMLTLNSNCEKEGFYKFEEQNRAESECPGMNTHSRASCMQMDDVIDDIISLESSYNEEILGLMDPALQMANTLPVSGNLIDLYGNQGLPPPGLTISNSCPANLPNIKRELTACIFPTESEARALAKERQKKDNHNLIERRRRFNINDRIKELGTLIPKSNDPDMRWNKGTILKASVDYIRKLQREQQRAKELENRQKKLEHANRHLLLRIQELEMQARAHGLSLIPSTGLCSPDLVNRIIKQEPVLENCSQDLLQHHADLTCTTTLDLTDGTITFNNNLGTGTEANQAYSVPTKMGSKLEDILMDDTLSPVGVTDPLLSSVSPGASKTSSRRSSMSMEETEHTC

Vero [8] = assay: cells; format: functional, cell-based; conditions: Chlorocebus sabaeus
A-375 [9] = assay: MITF: Counter assay: A375 proliferation Measured in Cell-Based System Using Plate Reader - 2084-03_Inhibitor_Dose_DryPowder_Activity. [Related pubchem assays (depositor defined):AID488944]; format: functional; conditions: Homo sapiens
Vero [10] = assay: cells; format: functional; conditions: Chlorocebus sabaeus
[11] = inhibitors of firefly luciferase expression or activity, dose response, H4 neuroglioma cells, luminescence (AID 1990); format: functional, cell-based
[12] = luciferase reporter signal reduction – luminescence, H4-C neuroglioblastoma cells, dose response (AID 2458); format: functional, cell-based;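 note: H4 neuroglioblastoma cells stably carrying a luciferase reporter gene fusion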
cells = format: functional, cell-based
[13] = Luminescence Cell-Based Dose Response HTS to Identify Inhibitors of 5'UTR Stem-Loop Driven Prion Protein mRNA Translation in H4 Neuroglioblastoma Cells. [Related pubchem assays: 1827 (Project Summary), 1813 (Primary HTS)]; format: functional
[14] = inhibitors of SNCA 5'UTR-driven reporter translation, confirmation, H4 neuroglioma cells, luminescence (AID 1988); format: functional, cell-based
[15] = inhibitors of SNCA 5'UTR-driven translation, confirmation, luminescence, H4 neuroglioblastoma cells, dose confirmation (AID 2454); format: functional, cell-based;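 note: H4 neuroglioblastoma cells carrying an alpha-synuclein 5'UTR luciferase reporter; potency for inhibition of the luciferase signal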
[16] = cytotoxicity in HEK-293T cells, dose response, cytotoxicity control for BCR NF-kB inhibitor project, luminescence, B-cell screen hits (AID 489021); format: functional, cell-based;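 note: HEK-293T cells carrying an NF-kB luciferase reporter; cells exposed to compound for about 14 hours before viability readout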
A-375 [17] = assay: A375 melanoma cell viability reduction, dose response, counter-screen for MITF modulator project, cherry-pick samples, set 2 (AID 540335); format: functional, cell-based; conditions: Homo sapiens
[18] = target: T2, Voltage-gated N-type calcium channel alpha-1B subunit/Amyloid beta A4 precursor protein-binding family A member 1 (Homo sapiens, UniProt Q00975+Q02410); format: protein assay
[19] = target: T2, Voltage-gated N-type calcium channel alpha-1B subunit/Amyloid beta A4 precursor protein-binding family A member 1; format: protein assay; remark: listed apart in the source
[20] = target: T3, Neuropeptides B/W receptor type 1 (Homo sapiens, UniProt P48145); assay: Fluorescence-based dose response cell-based high throughput screening assay to identify antagonists of the G-protein coupled receptor 7 (GPR7). [Related pubchem assays: 1952 (Screening assay (GPR7 antagonists).), 1880 (Summary AID.)]; format: functional
T3 sequence (P48145 whole entry): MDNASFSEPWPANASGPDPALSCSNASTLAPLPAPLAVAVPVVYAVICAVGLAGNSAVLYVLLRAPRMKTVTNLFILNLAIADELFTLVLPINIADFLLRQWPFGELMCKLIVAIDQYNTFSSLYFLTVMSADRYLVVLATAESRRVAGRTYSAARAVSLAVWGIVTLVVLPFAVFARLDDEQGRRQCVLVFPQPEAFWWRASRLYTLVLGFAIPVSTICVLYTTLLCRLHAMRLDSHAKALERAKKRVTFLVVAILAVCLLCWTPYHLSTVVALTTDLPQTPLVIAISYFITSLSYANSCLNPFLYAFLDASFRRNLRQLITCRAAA

[21] = target: Melanin-concentrating hormone receptor 1 (Homo sapiens, UniProt Q99705); assay: Fluorescence-based counterscreen for antagonists of the G-protein coupled receptor 7 (GPR7): cell-based high throughput dose response assay to identify antagonists of the melanin-concentrating hormone receptor 1 (MCHR1).; format: functional
CAAX prenyl protease 2 = target: T4, CAAX prenyl protease 2 (Saccharomyces cerevisiae S288c, UniProt Q03530); format: biochemical
T4 sequence (Q03530 whole entry): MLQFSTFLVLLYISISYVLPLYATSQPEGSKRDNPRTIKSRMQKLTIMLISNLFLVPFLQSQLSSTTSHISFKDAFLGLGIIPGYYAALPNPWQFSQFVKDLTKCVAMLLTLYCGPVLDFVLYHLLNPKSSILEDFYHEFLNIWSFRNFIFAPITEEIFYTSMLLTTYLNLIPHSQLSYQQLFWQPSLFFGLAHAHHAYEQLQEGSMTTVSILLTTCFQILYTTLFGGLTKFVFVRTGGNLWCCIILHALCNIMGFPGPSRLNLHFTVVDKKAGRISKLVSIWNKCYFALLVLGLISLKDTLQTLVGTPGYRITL

[22] = target: Eukaryotic translation initiation factor 4E (Mus musculus, UniProt P63073); assay: eIF4E–eIF4G protein interaction inhibitors, dose response, biochemical, TR-FRET (AID 855); format: functional;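 note: potency for disrupting eIF4E binding to eIF4GI seen as loss of FRET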
[23] = target: Glyceraldehyde-3-phosphate dehydrogenase (Homo sapiens, UniProt P04406)
[24] = target: Alkaline phosphatase, placental type (Homo sapiens, UniProt P05187); assay: PLAP enzyme inhibitors, confirmation, biochemical, luminescence (AID 1512); format: functional
[25] = target: T5, Alkaline phosphatase, tissue-nonspecific isozyme (Homo sapiens, UniProt P05186); assay: human TNAP enzyme inhibitors, SAR follow-up, biochemical, luminescent, dose response (AID 1056)
T5 sequence (P05186 whole entry): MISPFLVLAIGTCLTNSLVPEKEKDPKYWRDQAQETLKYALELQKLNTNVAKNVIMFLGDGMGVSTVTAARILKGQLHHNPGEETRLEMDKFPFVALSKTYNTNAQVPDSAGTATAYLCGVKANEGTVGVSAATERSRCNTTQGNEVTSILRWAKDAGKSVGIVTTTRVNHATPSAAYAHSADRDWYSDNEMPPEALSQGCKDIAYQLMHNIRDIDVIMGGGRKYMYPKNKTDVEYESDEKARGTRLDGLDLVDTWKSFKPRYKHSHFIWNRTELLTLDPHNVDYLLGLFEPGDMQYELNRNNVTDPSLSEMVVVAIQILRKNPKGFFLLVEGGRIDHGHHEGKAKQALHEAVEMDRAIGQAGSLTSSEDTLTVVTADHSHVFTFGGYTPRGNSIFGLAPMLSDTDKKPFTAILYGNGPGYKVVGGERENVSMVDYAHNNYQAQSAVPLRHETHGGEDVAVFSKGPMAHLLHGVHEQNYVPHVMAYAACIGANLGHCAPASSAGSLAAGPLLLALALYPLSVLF

T2 sequence (Q00975 whole entry): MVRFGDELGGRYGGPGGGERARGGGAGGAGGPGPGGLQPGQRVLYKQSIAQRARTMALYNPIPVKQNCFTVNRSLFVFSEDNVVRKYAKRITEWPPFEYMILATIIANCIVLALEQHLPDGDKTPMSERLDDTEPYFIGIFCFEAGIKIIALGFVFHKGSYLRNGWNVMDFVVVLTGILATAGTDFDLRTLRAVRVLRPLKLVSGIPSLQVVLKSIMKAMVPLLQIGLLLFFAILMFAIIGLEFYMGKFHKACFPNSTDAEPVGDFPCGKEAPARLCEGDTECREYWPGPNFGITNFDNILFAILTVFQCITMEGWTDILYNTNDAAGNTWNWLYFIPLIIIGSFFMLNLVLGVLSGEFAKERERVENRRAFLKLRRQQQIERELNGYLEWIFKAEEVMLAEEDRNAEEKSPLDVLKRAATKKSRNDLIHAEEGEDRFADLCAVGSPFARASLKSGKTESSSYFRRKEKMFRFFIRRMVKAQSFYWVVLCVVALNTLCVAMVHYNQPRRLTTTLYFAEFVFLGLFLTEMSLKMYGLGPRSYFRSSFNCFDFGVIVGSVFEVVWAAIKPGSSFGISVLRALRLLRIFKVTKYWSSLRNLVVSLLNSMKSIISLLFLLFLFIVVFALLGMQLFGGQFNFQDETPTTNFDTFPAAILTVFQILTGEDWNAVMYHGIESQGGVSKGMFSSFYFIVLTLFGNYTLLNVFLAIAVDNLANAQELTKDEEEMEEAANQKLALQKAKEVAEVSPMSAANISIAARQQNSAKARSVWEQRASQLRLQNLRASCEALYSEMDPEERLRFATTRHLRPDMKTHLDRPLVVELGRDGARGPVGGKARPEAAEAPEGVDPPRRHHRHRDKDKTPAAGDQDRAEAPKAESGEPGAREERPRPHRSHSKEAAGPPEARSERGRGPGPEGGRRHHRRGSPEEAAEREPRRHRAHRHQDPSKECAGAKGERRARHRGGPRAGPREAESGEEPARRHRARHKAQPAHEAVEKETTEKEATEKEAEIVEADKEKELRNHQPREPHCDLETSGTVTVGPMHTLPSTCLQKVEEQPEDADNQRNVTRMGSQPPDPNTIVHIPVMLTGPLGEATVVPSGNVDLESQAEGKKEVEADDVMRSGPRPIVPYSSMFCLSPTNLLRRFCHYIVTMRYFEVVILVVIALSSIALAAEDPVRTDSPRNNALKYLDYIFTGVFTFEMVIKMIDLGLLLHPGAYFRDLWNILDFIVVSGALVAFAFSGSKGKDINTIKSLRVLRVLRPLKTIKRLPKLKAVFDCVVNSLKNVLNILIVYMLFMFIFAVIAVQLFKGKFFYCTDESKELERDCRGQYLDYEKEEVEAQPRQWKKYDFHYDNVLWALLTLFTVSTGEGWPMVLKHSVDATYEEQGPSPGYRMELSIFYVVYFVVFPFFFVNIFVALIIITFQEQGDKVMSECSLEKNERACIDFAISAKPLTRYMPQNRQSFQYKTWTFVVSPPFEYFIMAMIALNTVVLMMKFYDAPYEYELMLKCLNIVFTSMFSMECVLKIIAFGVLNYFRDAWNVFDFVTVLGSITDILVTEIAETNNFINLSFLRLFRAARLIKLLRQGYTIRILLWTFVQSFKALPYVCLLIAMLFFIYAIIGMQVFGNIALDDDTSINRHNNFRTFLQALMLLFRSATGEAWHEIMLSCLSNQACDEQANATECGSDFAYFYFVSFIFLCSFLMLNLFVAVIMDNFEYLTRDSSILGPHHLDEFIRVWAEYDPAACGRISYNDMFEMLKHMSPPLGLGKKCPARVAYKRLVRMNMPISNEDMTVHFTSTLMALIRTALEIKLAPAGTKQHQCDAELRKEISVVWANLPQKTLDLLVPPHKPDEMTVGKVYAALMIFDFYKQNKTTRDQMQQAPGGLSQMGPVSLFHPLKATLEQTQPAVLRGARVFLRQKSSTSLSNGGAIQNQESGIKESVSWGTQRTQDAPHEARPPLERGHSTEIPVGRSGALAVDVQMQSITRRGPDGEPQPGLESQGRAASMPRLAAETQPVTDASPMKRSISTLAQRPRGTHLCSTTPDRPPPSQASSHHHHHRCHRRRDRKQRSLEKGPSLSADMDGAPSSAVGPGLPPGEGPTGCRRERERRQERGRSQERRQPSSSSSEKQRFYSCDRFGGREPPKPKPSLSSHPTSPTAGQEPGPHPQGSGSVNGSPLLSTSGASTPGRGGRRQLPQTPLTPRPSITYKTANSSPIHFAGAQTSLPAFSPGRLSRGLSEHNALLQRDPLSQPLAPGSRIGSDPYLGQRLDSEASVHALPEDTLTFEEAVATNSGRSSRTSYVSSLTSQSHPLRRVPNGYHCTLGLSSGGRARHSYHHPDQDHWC
T2 sequence (Q02410 whole entry): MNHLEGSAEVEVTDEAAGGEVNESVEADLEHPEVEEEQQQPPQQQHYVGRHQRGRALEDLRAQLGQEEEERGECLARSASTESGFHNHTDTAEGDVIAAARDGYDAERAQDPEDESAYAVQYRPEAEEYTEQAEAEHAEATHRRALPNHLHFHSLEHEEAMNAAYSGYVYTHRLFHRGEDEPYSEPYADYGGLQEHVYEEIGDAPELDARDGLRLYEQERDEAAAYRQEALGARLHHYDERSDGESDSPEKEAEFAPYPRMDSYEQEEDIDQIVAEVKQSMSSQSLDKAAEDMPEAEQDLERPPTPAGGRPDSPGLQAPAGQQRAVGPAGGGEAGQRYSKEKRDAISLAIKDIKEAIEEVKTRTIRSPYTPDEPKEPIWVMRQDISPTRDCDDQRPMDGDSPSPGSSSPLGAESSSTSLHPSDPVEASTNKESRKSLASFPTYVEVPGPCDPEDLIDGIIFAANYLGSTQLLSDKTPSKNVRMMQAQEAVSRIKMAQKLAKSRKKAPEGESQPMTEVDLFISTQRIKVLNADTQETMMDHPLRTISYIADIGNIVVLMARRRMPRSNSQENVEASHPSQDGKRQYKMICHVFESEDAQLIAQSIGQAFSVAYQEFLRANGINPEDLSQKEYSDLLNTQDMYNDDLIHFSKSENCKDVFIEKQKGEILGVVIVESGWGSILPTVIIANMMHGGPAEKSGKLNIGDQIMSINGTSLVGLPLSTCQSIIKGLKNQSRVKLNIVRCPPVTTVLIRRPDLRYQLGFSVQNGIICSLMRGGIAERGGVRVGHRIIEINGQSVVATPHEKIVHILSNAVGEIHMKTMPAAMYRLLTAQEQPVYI
Alkaline phosphatase, placental type, sequence (P05187 whole entry): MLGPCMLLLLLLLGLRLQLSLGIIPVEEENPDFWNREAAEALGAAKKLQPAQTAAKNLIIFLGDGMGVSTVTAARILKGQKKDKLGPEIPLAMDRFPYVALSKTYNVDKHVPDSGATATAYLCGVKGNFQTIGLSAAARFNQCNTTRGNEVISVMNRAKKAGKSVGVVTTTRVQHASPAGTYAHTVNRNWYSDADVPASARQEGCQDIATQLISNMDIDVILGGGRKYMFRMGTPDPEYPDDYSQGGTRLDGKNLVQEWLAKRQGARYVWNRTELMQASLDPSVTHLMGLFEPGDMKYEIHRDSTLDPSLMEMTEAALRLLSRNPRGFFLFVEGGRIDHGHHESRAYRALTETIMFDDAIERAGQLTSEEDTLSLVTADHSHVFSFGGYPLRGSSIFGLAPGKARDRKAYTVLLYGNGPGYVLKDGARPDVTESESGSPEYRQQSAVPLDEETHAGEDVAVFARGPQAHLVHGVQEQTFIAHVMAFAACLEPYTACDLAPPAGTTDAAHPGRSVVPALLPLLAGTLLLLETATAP
Nucleotide-binding oligomerization domain-containing protein 2, sequence (Q9HC29 whole entry, the tested form may be a part): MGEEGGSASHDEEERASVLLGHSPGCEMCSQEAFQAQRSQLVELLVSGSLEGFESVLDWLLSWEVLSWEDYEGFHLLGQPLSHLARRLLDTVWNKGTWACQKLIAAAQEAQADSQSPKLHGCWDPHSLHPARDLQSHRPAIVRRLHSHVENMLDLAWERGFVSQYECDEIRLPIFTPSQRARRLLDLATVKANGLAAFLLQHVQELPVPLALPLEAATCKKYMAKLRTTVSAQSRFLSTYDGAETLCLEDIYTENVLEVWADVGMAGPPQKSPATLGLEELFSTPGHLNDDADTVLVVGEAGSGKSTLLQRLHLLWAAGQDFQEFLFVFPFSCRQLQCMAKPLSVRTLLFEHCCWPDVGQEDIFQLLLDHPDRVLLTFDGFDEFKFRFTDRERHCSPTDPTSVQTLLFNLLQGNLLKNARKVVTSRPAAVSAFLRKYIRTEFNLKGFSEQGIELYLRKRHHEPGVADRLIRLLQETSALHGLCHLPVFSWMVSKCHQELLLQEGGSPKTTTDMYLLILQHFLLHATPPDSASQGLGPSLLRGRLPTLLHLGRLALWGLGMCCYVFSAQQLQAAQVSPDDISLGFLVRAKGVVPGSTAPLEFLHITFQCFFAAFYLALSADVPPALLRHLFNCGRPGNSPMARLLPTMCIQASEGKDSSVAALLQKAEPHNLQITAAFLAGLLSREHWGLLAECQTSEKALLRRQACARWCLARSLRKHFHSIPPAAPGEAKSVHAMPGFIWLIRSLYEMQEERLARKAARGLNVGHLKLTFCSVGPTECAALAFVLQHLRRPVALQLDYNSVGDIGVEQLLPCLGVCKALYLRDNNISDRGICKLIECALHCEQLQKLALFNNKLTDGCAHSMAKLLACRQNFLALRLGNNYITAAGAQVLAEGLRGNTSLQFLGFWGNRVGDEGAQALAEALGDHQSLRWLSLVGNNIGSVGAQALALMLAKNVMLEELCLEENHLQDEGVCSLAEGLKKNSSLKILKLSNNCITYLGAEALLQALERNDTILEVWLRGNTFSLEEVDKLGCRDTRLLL
Eukaryotic translation initiation factor 4E, sequence (P63073 whole entry): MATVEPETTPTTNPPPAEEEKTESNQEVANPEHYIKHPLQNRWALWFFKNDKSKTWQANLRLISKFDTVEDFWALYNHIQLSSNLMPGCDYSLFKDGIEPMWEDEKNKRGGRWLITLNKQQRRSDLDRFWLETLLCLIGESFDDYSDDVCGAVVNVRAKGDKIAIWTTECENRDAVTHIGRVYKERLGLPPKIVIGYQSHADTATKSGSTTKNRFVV

## CC1CCCCC1NC(=O)/C(C#N)=C/C=C/c1ccccc1[N+](=O)[O-] (configuration not stated)
HEK293 [1]
  EC50: > 20 µM (inactive)
HEK293 [2]
  IC50: 3.59 µM (active)
HEK293 [3]
  IC50: > 20 µM (inactive)
[4]
  EC50: > 20 µM (inactive)
HEK293 [5]
  IC50: 4.85 µM (inactive)
HEK293 [6]
  IC50: > 20 µM (inactive)
[7]
  AC50: 7.92 µM (active)
Vero [8]
  IC50: 13.3 µM (active)
A-375 [9]
  AC50: 31.9 µM (active)
Vero [10]
  CC50: 15.6 µM (active)

## CC(C)(C)c1ccc(-c2cc(N)[nH]n2)cc1
[11]
  EC50: < 0.1 µM (active)
[12]
  EC50: 0.403 µM (active)
cells
  EC50: 1.34 µM (active)
[13]
  EC50: 7.28 µM (active)
[14]
  EC50: < 0.1 µM (active)
[15]
  EC50: 0.677 µM (active)
[7]
  AC50: 0.511 µM (active)
[16]
  IC50: > 80 µM (inactive)
A-375 [9]
  AC50: > 35 µM (active)
A-375 [17]
  AC50: > 35 µM (active)

## CN1C(=O)C(Cl)(Cl)C(=O)c2ccccc21
[18]
  IC50: 34.5 µM (active)
[19]
  IC50: 2.75 µM (active)

## COc1ccc(S(=O)(=O)N2CCN(CC(=O)Nc3cccc(OC)c3)CC2)cc1
[20]
  IC50: > 43.8 µM (not active)
[21]
  IC50: > 43.8 µM (not active)

## CC(C)c1ccc(/C=C2\SC(=S)N(CCC(=O)NCCCn3ccnc3)C2=O)cc1
CAAX prenyl protease 2
  AC50: > 100 µM (inactive)
[16]
  IC50: > 80 µM (inactive)

## CC1CCCCN1C(=O)Cn1c(=O)n(-c2ccc(F)cc2)c(=O)c2sccc21 (configuration not stated)
[22]
  IC50: 50 µM (inactive)

## CC(C)c1nc(N)nn1-c1ccccc1
[23]
  IC50: > 100 µM (not active)
[24]
  IC50: > 100 µM (inactive)
[25]
  IC50: > 100 µM (inactive)

## O=C(CNc1ccncc1)c1ccc(O)c(O)c1
[24]
  IC50: > 100 µM (inactive)
[25]
  IC50: > 100 µM (inactive)
